Data as given in PubChem BioAssay AID1963873 (Molecular Pharmacology Branch, DTP, NCI, 2024).

Test system: 276233-004-R-J1-PDC KRAS spheroids with HUVEC/MSC, viability
Experiment: Anticancer human tumor 276233-004-R-J1-PDC patient-derived colon adenocarcinoma cell line growth inhibition [KRAS2]
Details: for IC50: curve of first compound; for viability, T/C: stronger effect = lower value; active = viability on the fitted dose curve at most 10% of control; inactive = the rest
Procedure, shortened: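 KRAS-mutant tumor cells were grown as spheroids with HUVEC endothelial cells and human MSCs as stroma. Targeted agents were tested alone and with KRAS pathway inhibitors. Doses started at or near clinical Cmax, or 10 microM, descending half-log.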

[1] = second compound 0.1 µM, first compound 0.01 µM
[2] = second compound 0.1 µM, first compound 0.0316 µM
[3] = second compound 0.1 µM, first compound 0.1 µM
[4] = second compound 0.1 µM, first compound 0.316 µM
[5] = second compound 0.1 µM, first compound 1 µM
[6] = second compound 0.1 µM, first compound 3.16 µM
[7] = second compound 0.316 µM, first compound 0.01 µM
[8] = second compound 0.316 µM, first compound 0.0316 µM
[9] = second compound 0.316 µM, first compound 0.1 µM
[10] = second compound 0.316 µM, first compound 0.316 µM
[11] = second compound 0.316 µM, first compound 1 µM
[12] = second compound 0.316 µM, first compound 3.16 µM
[13] = second compound 1 µM, first compound 0.01 µM
[14] = second compound 1 µM, first compound 0.0316 µM
[15] = second compound 1 µM, first compound 0.1 µM
[16] = second compound 1 µM, first compound 0.316 µM
[17] = second compound 1 µM, first compound 1 µM
[18] = second compound 1 µM, first compound 3.16 µM
[19] = second compound 3.16 µM, first compound 0.01 µM
[20] = second compound 3.16 µM, first compound 0.0316 µM
[21] = second compound 3.16 µM, first compound 0.1 µM
[22] = second compound 3.16 µM, first compound 0.316 µM
[23] = second compound 3.16 µM, first compound 1 µM
[24] = second compound 3.16 µM, first compound 3.16 µM
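Note: cells exposed to agents for seven days before viability read.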
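Throughout, for viability, T/C: 100% = DMSO vehicle control wells and lower values mean fewer viable cells.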

CC(=O)OC12COC1CC(O)C1(C)C(=O)C(O)C3=C(C)C(OC(=O)C(O)C(NC(=O)OC(C)(C)C)c4ccccc4)CC(O)(C(OC(=O)c4ccccc4)C21)C3(C)C (stereo not given) + CNCc1ccccc1-c1csc(C(C)Nc2nc(C)nc3cc(OC)c(OC)cc23)c1
inactive: viability, T/C [1] 102% | viability, T/C [2] 96.3% | viability, T/C [3] 83.4% | viability, T/C [4] 81.1% | viability, T/C [5] 105% | viability, T/C [6] 87.5% | viability, T/C [7] 92% | viability, T/C [8] 86.1% | viability, T/C [9] 77% | viability, T/C [10] 87.8% | viability, T/C [11] 93.8% | viability, T/C [12] 95.7% | viability, T/C [13] 103% | viability, T/C [14] 91.4% | viability, T/C [15] 89.9% | viability, T/C [16] 111% | viability, T/C [17] 119% | viability, T/C [18] 117% | viability, T/C [19] 105% | viability, T/C [20] 0.58% | viability, T/C [21] 5.25% | viability, T/C [22] 1.73% | viability, T/C [23] 1.78% | viability, T/C [24] 104% | viability, T/C (second compound 10 µM, first compound 1 µM) 110% | viability, T/C (second compound 10 µM, first compound 3.16 µM) 0.46%
active: viability, T/C (second compound 10 µM, first compound 0.01 µM) 4.38% | viability, T/C (second compound 10 µM, first compound 0.0316 µM) 2.71% | viability, T/C (second compound 10 µM, first compound 0.1 µM) 6.51% | viability, T/C (second compound 10 µM, first compound 0.316 µM) 1.17%
> 3.16 µM: IC50 (second compound 0.1 µM) | IC50 (second compound 0.316 µM) | IC50 (second compound 1 µM)
0.0216 µM: IC50 (second compound 3.16 µM)
< 0.01 µM: IC50 (second compound 10 µM)

CC1COCCN1c1cc(-c2ccnn2C)c2ccnc(-c3ccn[nH]3)c2n1 (stereo not given) + C=CC(=O)N1CCN(c2nc(OCC3CCCN3C)nc3c2CCN(c2cccc4cccc(C)c24)C3)CC1CC#N
0.19 µM: IC50 (second compound 3.16 µM)
> 3.16 µM: IC50 (second compound 0.0316 µM) | IC50 (second compound 0.1 µM) | IC50 (second compound 0.316 µM) | IC50 (second compound 1 µM)
inactive: viability, T/C (second compound 0.0316 µM, first compound 0.01 µM) 100% | viability, T/C (second compound 0.0316 µM, first compound 0.0316 µM) 92.7% | viability, T/C (second compound 0.0316 µM, first compound 0.1 µM) 82.4% | viability, T/C (second compound 0.0316 µM, first compound 0.316 µM) 71.3% | viability, T/C (second compound 0.0316 µM, first compound 1 µM) 67.5% | viability, T/C (second compound 0.0316 µM, first compound 3.16 µM) 56% | viability, T/C [1] 111% | viability, T/C [2] 95.3% | viability, T/C [3] 94.6% | viability, T/C [4] 74.8% | viability, T/C [5] 59% | viability, T/C [6] 54.1% | viability, T/C [7] 106% | viability, T/C [8] 96.6% | viability, T/C [9] 91.5% | viability, T/C [10] 69.4% | viability, T/C [11] 59.3% | viability, T/C [12] 55.6% | viability, T/C [13] 90% | viability, T/C [14] 90.5% | viability, T/C [15] 77.8% | viability, T/C [16] 70.3% | viability, T/C [17] 64% | viability, T/C [18] 56.9% | viability, T/C [19] 76.2% | viability, T/C [20] 61% | viability, T/C [21] 56.8% | viability, T/C [22] 42.9% | viability, T/C [23] 45.6% | viability, T/C [24] 48%
